Like-named read-outs stand apart in the source and are kept apart here.
Assays:
[1] = Pharmacokinetics after single intravenous dose (100 mg/kg); type: in vivo, BALB/c mice; details: BALB/c, mouse
Method: (§1) LC/MS/MS (HPβCD) and HPLC-UV (ORX-301) were used for analysis in the studies. The bioanalytical method for HPβCD was linear, accurate, and precise in the concentration range of 5.4 and 500 µg/ml, with an LLOQ = 5.4 µg/ml, and met all the acceptance criteria.
(§2) Pharmacokinetic analysis and MTD studies were carried out in BALB/c mice purchased from Taconic Biosciences. Protocols and procedures of these studies were approved by the Institutional Animal Ethics Committee based on CPCSEA (India) guidelines.
(§3) Plasma was harvested and stored at −80 °C.

[2] = Pharmacokinetics after single subcutaneous dose (500 mg/kg); type: in vivo, BALB/c mice; details: BALB/c, mouse, plasma
Method: as §1, §2, §3

[3] = in vivo; details: BALB/c, mouse, sc, 500 mg/kg; for AUC(0-t): AUClast; for Kp: Tissue/Plasma Ratio
Method: The vehicle used for dissolution of test compounds was 0.9% Normal Saline. […] The formulations were prepared on the day of the study. The test compounds were administered at 100 mg/kg for the IV study and 500 mg/kg for the SC study. For the tissue distribution study, again 500 mg/kg was administered by the SC route.
Post dose, blood, or the relevant tissue in the case of the distribution study was collected at time points of 2 min, 5 min, 15 min, 30 min, 1 h, 2 h, 4 h, 24 h, 36 h and 48 h. From each mouse terminal blood samples were collected by cardiac puncture under isoflurane anaesthesia. The blood was collected in 2 ml Eppendorf tubes containing 0.020 ml of 10% K2EDTA, mixed gently and placed in ice before centrifugation. Plasma was harvested and stored at −80 °C. […] The PK analysis was performed using Non-compartmental methods in Phoenix WinNonlin 6.4 [Pharsight, Certara]. The mean concentration-time data were used for computing the PK parameters. The AUC was computed using the linear up-log down method. The following NCA parameters were estimated for the IV PK: Systemic Clearance [CL], Vss [Volume of distribution at steady state], first order elimination rate constant [ke], terminal half-life [t1/2], AUC0-t, AUC0-∞. For the SC PK study: Cmax, tmax, ke, t1/2, AUC0-t, AUC0-∞ and the absolute SC bioavailability [F] was estimated using the equation: F(%)=(AUCsc/AUCiv)∗(Doseiv/Dosesc)∗100

[4] = system: Npc1^nmf164 mice; assay: Early intervention efficacy study (treatment from 2 weeks of age); type: in vivo; details: for Mean bodyweight: Npc1^nmf164 mice, 800 mg/kg SC weekly
Method: Control group mice received plain PBS (sham, group).
The body weight was recorded weekly and a score ranging from 0 to 5 was assigned to each mouse (Table 3) as previously performed. The motor co-ordination phenotype was assessed by the balance beam test every two weeks as previously described. Briefly, the mouse was placed perpendicularly at the center of a horizontal round beam (covered with paper tape, outer diameter 2 cm, length 1 m, divided into 10 sections and placed 50 cm above a padded surface) and the number of beam sections crossed in a 180 s time interval was recorded. Although the test relies on muscle strength and limb tone, it is well validated for the assessment of fine motor coordination and balance. […] The end-point of data collection was established as mouse weight approaching 13 g[40].

[5] = system: Calbindin in Purkinje cells of Npc1^nmf164 mice; assay: Calbindin detection by immunofluorescence on cerebellar sections; type: in vivo; details: 10 weeks-old Npc1^nmf164 mice, 800 mg/kg SC weekly from 2 weeks
Method: Sham-treated control mice were injected with plain PBS.
Brains were quickly dissected, fixed overnight at 4 °C in 4% PFA and processed as previously described[52]. Briefly, fixed brains were dehydrated by incubation in 15–30% sucrose in PBS, embedded in FSC 22 Clear Frozen Section Compound (Leica Biosystems, Milano, Italy) and serially sectioned (slice thickness 10 µm) using a cryostat (Leica CM 1900). Sagittal sections were mounted on X-tra Adhesive glass slides (Leica biosystems). Sections were processed for immunofluorescence using a mouse monoclonal Calbindin antibody (Anti-Calbindin D28K, Sigma, Milan, Italy; 1:500 dilution in PBS) as routinely performed in our lab. A permeabilization step performed by incubating sections in 0.1% Triton X-100 in PBS for 10 min was followed by a 3 h incubation in a blocking solution containing 5% goat serum, 1% BSA, 0.2% Triton X-100 in PBS. Sections were then incubated over night with a 1:500 primary antibody dilution in PBS and, after several washes with PBS, with a TRITC-conjugated anti-mouse secondary antibody (Zymed-Thermo Fisher Scientific, Milan, Italy).

[6] = cited from earlier work
[7] = system: Npc1^nmf164 mice; parameters: method as in PMID 26888431; details: HPβCD full dose 4000 mg/kg; cited from earlier work
[8] = system: Npc1^nih/nih mice; details: cited from earlier work
[9] = 800 mg/kg SC weekly from 2 weeks of age

CC(O)COC[C@H]1O[C@@H]2O[C@H]3[C@H](O)[C@@H](O)[C@@H](O[C@H]4[C@H](O)[C@@H](O)[C@@H](O[C@H]5[C@H](O)[C@@H](O)[C@@H](O[C@H]6[C@H](O)[C@@H](O)[C@@H](O[C@H]7[C@H](O)[C@@H](O)[C@@H](O[C@H]8[C@H](O)[C@@H](O)[C@@H](O[C@H]1[C@H](O)[C@H]2O)O[C@@H]8COCC(C)O)O[C@@H]7COCC(C)O)O[C@@H]6COCC(C)O)O[C@@H]5COCC(C)O)O[C@@H]4COCC(C)O)O[C@@H]3COCC(C)O (stereo partly drawn) [HPβCD, 2-hydroxypropyl-β-cyclodextrin]
concentration at 24 h ([1]; in vivo, iv, 100 mg/kg): 4.95 µg/mL
tlast ([1]; in vivo, iv, 100 mg/kg): 24 h
bioavailability ([1]; plasma, 500 mg/kg, printed under the Intravenous columns, read-out: Absolute Bioavailability): 42%
half-life ([1]; plasma, iv, 100 mg/kg, intravenous 100 mg/kg): ~14 h
clearance ([1]; plasma, single IV dose 100 mg/kg): 0.85 mL/min/kg
Vd ([1]; plasma, single IV dose 100 mg/kg, read-out: Vss): 0.18 L/kg
AUC(0-inf) ([1]; intravenous 100 mg/kg, plasma): 1960 µg·h/mL
AUC(0-t) ([1]; intravenous 100 mg/kg, plasma): 1860 µg·h/mL
Tmax ([1]; intravenous 100 mg/kg, plasma): 4.98 min
bioavailability ([2]; subcutaneous 500 mg/kg vs intravenous 100 mg/kg, read-out: Absolute Bioavailability): 42%
AUC(0-inf) ([2]; sc, subcutaneous 500 mg/kg): 4140 µg·h/mL
AUC(0-t) ([2]; sc, subcutaneous 500 mg/kg): 4020 µg·h/mL
Cmax ([2]; sc, subcutaneous 500 mg/kg): 4610 µg/mL
Tmax ([2]; sc, subcutaneous 500 mg/kg): 4.98 min
half-life ([2]; sc, subcutaneous 500 mg/kg): 16.7 h
AUC(0-t) ([3]; kidney): 2950 µg·h/mL
AUC(0-t) ([3]; liver): 127 µg·h/mL
AUC(0-t) ([3]; spleen): 828 µg·h/mL
Kp ([3]; kidney): 0.63
Kp ([3]; liver): 0.03
Kp ([3]; spleen): 0.18
body weight loss progression [4, 9]: less severe and slower progressing weight loss
improvement of performance in the balance beam test [4, 9]: only temporarily observed up to 9-weeks of age
mean lifespan [4, 9]: 150 ± 2.55 days
improvement in mean survival ([4]; 800 mg/kg SC weekly from 2 weeks of age, vs sham-treated): 35%
Mean bodyweight ([4]; post-natal week 2): 7.43 ± 0.30 g
Mean bodyweight ([4]; post-natal week 3): 10.37 ± 0.33 g
Mean bodyweight ([4]; post-natal week 4): 13.31 ± 0.53 g
Mean bodyweight ([4]; post-natal week 5): 17.24 ± 0.65 g
Mean bodyweight ([4]; post-natal week 6): 18.58 ± 0.75 g
Mean bodyweight ([4]; post-natal week 7): 20.25 ± 0.84 g
Mean bodyweight ([4]; post-natal week 8): 20.85 ± 0.94 g
Mean bodyweight ([4]; post-natal week 9): 20.55 ± 1.03 g
Mean bodyweight ([4]; post-natal week 10): 19.92 ± 0.81 g
Calbindin staining of Purkinje cells [5]: markedly reduced Calbindin staining
fraction that reaches the brain upon systemic administration ([6]; ref 25, 53): 0.2–1.5%
fraction that reaches the brain upon systemic administration ([6]; ref 25): less than 0.2%
mean lifespan [7]: 170 to 180 days
effect on lifespan ([8]; single injection at day 49, Npc1^nih/nih mice): did not significantly improve the lifespan
dosage required for improvement of survival ([8]; weekly injections started at day 42, Npc1^nih/nih mice): at least 1000 mg/kg

— article PMC6015065, “Linear Cyclodextrin Polymer Prodrugs as Novel Therapeutics for Niemann-Pick Type C1 Disorder” (Scientific Reports, 2018)
